Measured values reported in publication PMC5137954, “Importance of measuring testosterone in enzyme-inhibited plasma for oral testosterone undecanoate androgen replacement therapy clinical trials” (Future Science OA, 2015).

What was measured:
[1] = Stability of T and DHT in NaF/Na2EDTA plasma in presence of TU, DHTU and glucuronides (method validation); conditions: for increase of the T and DHT concentrations (degradation of TU and DHTU into T or DHT): low and high QCs, room temperature or 4°C, long-term storage at -20 and -80°C; for % Bias of dihydrotestosterone concentration / % Bias of testosterone concentration: DHTU and glucuronides
Procedure: The methods were validated as per the most recent US FDA and EMA validation guidelines. During the method validation, the accuracy, precision, within-run, between-run, selectivity, matrix effect as well as the stability (stability in whole blood at 4°C, short-term stability in matrix at room temperature, freeze–thaw stability at -20°C/-80°C, long-term stability at -20°C/-80°C) were evaluated.
The impact of the glucuronide was also assessed in whole blood during sample collection and handling.
Moreover, the possible degradation of TU and DHTU into T or DHT was assessed when low and high T and DHT level quality controls were submitted to freeze–thaw cycles, incubation at room temperature or 4°C and long-term storage at -20 and -80°C.
Low QC samples were fortified with testosterone undecanoate (3000 ng/dL), dihydrotestosterone undecanoate (1500 ng/dL), testosterone glucuronide (800 ng/dL) and dihydrotestosterone undecanoate (400 ng/dL). High QC samples were fortified with testosterone undecanoate (219000 ng/dL), dihydrotestosterone undecanoate (235100 ng/dL), testosterone glucuronide (93600 ng/dL) and dihydrotestosterone undecanoate (21900 ng/dL). The%Bias must be within 15%.

[2] = TU to T conversion depending on the TU spiking solvent used; type: in vitro ADME, human
Procedure: We decided to investigate further to better understand the discordance between the conclusions. Literature descriptions of sample preparations include a stock solution prepared in ethanol and diluted in phosphate buffer saline (PBS). In the experiments carried out in the study reported here, it was observed that the stock and spiking solution preparation is very important. A stock solution of TU was prepared in ethanol and diluted with PBS prior to being added to whole blood. Results from this procedure were compared with those typically used in our experiments with TU stock prepared and diluted using methanol, prior to being added to whole blood. It was observed that a precipitate occurred in the PBS solution after a freeze–thaw cycle.
To investigate this effect further, freshly collected whole blood was collected in conventional serum tubes and in NaF/K2C2O4 tubes. Each whole blood tube was fortified with TU at a final concentration of 60,000 ng/dl with solution prepared either in methanol or in ethanol/PBS; each experiment was performed in triplicate. Serum samples were incubated at room temperature for 30 and 60 min, and plasma samples were incubated for 10, 30 and 60 min at 4°C. T and TU were analyzed in the plasma and serum samples obtained.

[3] = in serum or plasma, sometimes; cited from earlier work
[4] = conclusion of a published method validation; cited from earlier work
[5] = Clinical study of oral TU: T and DHT in serum versus NaF/Na2 EDTA plasma; conditions: day 84, oral TU twice daily, fed, 15 hypogonadal men; serum vs NaF-Na2 EDTA plasma
Procedure: A clinical study was performed at the inVentiv Health Clinical facilities where fifteen asymptomatic hypogonadal male subjects aged 18 to 75 years were administered an oral dose of TU twice daily for 84 consecutive days under fed conditions. Each volunteer was informed on the risk of procedure and risk of the clinical study by signing the informed consent. On day 84, serum and plasma samples were collected predose and at 1.5, 3, 4, 5, 6, 8, 10, 12, 13.5, 15, 16, 17, 18, 20, 22 and 24 h after the morning dose. One of the main objectives of this study part was to compare the levels of T and DHT measured with a validated method in NaF/Na2 EDTA plasma to the levels measured in serum.
Pharmacokinetic (PK) parameters were assessed using samples collected on day 84: Ln-transformed area under the concentration–time curve (AUC0–24) and the maximum concentration of analyte (Cmax0–24) obtained with the study samples collected from 0–24 h after the morning dose of TU on last study day 84 were used to compare the levels of testosterone, DHT, TU and DHTU measured in serum in comparison to the levels measured in plasma.
Data reported in Table 5 were obtained from a cohort of 15 subjects undergoing a clinical study of a novel formulation of TU. Table 5 presents summaries of the comparison of the PK results for T and DHT obtained using serum and plasma samples for each analyte. Figure 2 presents the mean analyte concentrations obtained from the serum and plasma samples.

Q: With `C[C@]12CC[C@H]3[C@@H](CCC4=CC(=O)CC[C@@]43C)[C@@H]1CC[C@@H]2O[C@@H]1O[C@H](C(=O)O)[C@@H](O)[C@H](O)[C@H]1O` [Testosterone glucuronide, testosterone glucuronide] as the molecule, how does the “impact on the quantitation of T and DHT” value ([1]; low and high QCs fortified with testosterone glucuronide, freeze–thaw cycles, room temperature, 4°C, long-term storage at -20 or -80°C) read?
A: no impact

Q: For `CCCCCCCCCCC(=O)O[C@H]1CCC2C3CCC4=CC(=O)CC[C@]4(C)C3CC[C@@]21C` (stereo partly drawn) [TU, Testosterone undecanoate], which “Mean TU Concentration” value ([2]; whole blood spiked with TU in PBS, 60,000 ng/dl, 30 min serum RT) is on record?
A: 3991.0 ng/dL

Q: And the “Mean TU Concentration” value ([2]; whole blood spiked with TU in PBS, 60,000 ng/dl, 60 min serum RT)?
A: 5892.3 ng/dL

Q: And the “Mean TU Concentration” value ([2]; whole blood spiked with TU in PBS, 60,000 ng/dl, NaF/K2C2O4 plasma 10 min 4°C)?
A: 74408.7 ng/dL

Q: What about the “Mean TU Concentration” value ([2]; whole blood spiked with TU in PBS, 60,000 ng/dl, NaF/K2C2O4 plasma 30 min 4°C) of the same molecule?
A: 54088.0 ng/dL

Q: And the “Mean TU Concentration” value ([2]; whole blood spiked with TU in PBS, 60,000 ng/dl, NaF/K2C2O4 plasma 60 min 4°C)?
A: 26618.7 ng/dL

Q: And the “Mean TU Concentration” value ([2]; whole blood spiked with TU in methanol, 60,000 ng/dl, 30 min serum RT)?
A: 97110.3 ng/dL

Q: What about the “Mean TU Concentration” value ([2]; whole blood spiked with TU in methanol, 60,000 ng/dl, 60 min serum RT) of the same molecule?
A: 96132.3 ng/dL

Q: And the “Mean TU Concentration” value ([2]; whole blood spiked with TU in methanol, 60,000 ng/dl, NaF/K2C2O4 plasma 10 min 4°C)?
A: 97235.0 ng/dL

Q: And the “Mean TU Concentration” value ([2]; whole blood spiked with TU in methanol, 60,000 ng/dl, NaF/K2C2O4 plasma 30 min 4°C)?
A: 95628.0 ng/dL

Q: What about the “Mean TU Concentration” value ([2]; whole blood spiked with TU in methanol, 60,000 ng/dl, NaF/K2C2O4 plasma 60 min 4°C) of the same molecule?
A: 93816.3 ng/dL

Q: What about the “increase of the T and DHT concentrations (degradation of TU and DHTU into T or DHT)” value ([1]; freeze–thaw cycles) of the same molecule?
A: No increase

Q: And the “TU concentration higher than the testosterone concentration” value [3]?
A: 20- to 30 times

Q: What about the “stability of TU in blood” value [4] of the same molecule?
A: stable

Q: With `C[C@]12CCC(=O)C[C@@H]1CC[C@@H]1[C@@H]2CC[C@]2(C)[C@@H](O)CC[C@@H]12` [Dihydrotestosterone, dihydrotestosterone] as the molecule, how does the “Ratio (serum/plasma) of AUC0–24” value [5] read?
A: 122.40%

Q: What about the “Ratio (serum/plasma) of Cmax0–24” value [5] of the same molecule?
A: 130.61%

Q: And the “% Bias of dihydrotestosterone concentration” value ([1]; High QC 430.0 ng/dL fortified with TU, Freeze/Thaw at -20°C (4 Cycles))?
A: -10.2%

Q: And the “% Bias of dihydrotestosterone concentration” value ([1]; High QC 430.0 ng/dL fortified with TU, Freeze/Thaw at -80°C (4 Cycles))?
A: -10.7%

Q: And the “% Bias of dihydrotestosterone concentration” value ([1]; High QC 430.0 ng/dL fortified with TU, Long-Term at -20°C for 14 days)?
A: -4.4%

Q: And the “% Bias of dihydrotestosterone concentration” value ([1]; High QC 430.0 ng/dL fortified with TU, Long-Term at -80°C for 14 days)?
A: -5.4%

Q: What about the “% Bias of dihydrotestosterone concentration” value ([1]; High QC 430.0 ng/dL fortified with TU, Post-Preparative at RT for 69 hrs) of the same molecule?
A: 8.6%

Q: And the “% Bias of dihydrotestosterone concentration” value ([1]; High QC 430.0 ng/dL fortified with TU, Short-Term at 4°C for 21 hrs)?
A: -0.5%

Q: What about the “% Bias of dihydrotestosterone concentration” value ([1]; High QC 430.0 ng/dL fortified with TU, Short-Term at RT for 23 hrs) of the same molecule?
A: 2.5%

Q: And the “% Bias of dihydrotestosterone concentration” value ([1]; High QC 430.0 ng/dL fortified with TU, Whole Blood on Ice for 110 min)?
A: 0.3%

Q: And the “% Bias of dihydrotestosterone concentration” value ([1]; Low QC 19.2 ng/dL fortified with TU, Freeze/Thaw at -20°C (4 Cycles))?
A: -14.6%

Q: What about the “% Bias of dihydrotestosterone concentration” value ([1]; Low QC 19.2 ng/dL fortified with TU, Freeze/Thaw at -80°C (4 Cycles)) of the same molecule?
A: -14.9%

Q: And the “% Bias of dihydrotestosterone concentration” value ([1]; Low QC 19.2 ng/dL fortified with TU, Long-Term at -20°C for 14 days)?
A: -8.7%

Q: What about the “% Bias of dihydrotestosterone concentration” value ([1]; Low QC 19.2 ng/dL fortified with TU, Long-Term at -80°C for 14 days) of the same molecule?
A: -8.1%

Q: What about the “% Bias of dihydrotestosterone concentration” value ([1]; Low QC 19.2 ng/dL fortified with TU, Post-Preparative at RT for 69 hrs) of the same molecule?
A: 5.1%

Q: And the “% Bias of dihydrotestosterone concentration” value ([1]; Low QC 19.2 ng/dL fortified with TU, Short-Term at 4°C for 21 hrs)?
A: -9.1%

Q: What about the “% Bias of dihydrotestosterone concentration” value ([1]; Low QC 19.2 ng/dL fortified with TU, Short-Term at RT for 23 hrs) of the same molecule?
A: -6.1%

Q: What about the “% Bias of dihydrotestosterone concentration” value ([1]; Low QC 19.2 ng/dL fortified with TU, Whole Blood on Ice for 110 min) of the same molecule?
A: -6.1%

Q: Which “increase of the T and DHT concentrations (degradation of TU and DHTU into T or DHT)” value ([1]; freeze–thaw cycles) does the source give for `CCCCCCCCCCC(=O)O[C@H]1CCC2C3CCC4CC(=O)CC[C@]4(C)C3CC[C@@]21C` (stereo partly drawn) [DHTU, 5-alpha-dihydrotestosterone undecanoate] here?
A: No increase

Q: With `C[C@]12CC[C@H]3[C@@H](CCC4=CC(=O)CC[C@@]43C)[C@@H]1CC[C@@H]2O` [Testosterone, testosterone] as the molecule, how does the “Ratio (serum/plasma) of AUC0–24” value [5] read?
A: 130.02%

Q: And the “Ratio (serum/plasma) of Cmax0–24” value [5]?
A: 134.01%

Q: What about the “% Bias of testosterone concentration” value ([1]; High QC 2300.0 ng/dL fortified with TU, Freeze/Thaw at -20°C (4 Cycles)) of the same molecule?
A: -3.3%

Q: And the “% Bias of testosterone concentration” value ([1]; High QC 2300.0 ng/dL fortified with TU, Freeze/Thaw at -80°C (4 Cycles))?
A: -3.4%

Q: What about the “% Bias of testosterone concentration” value ([1]; High QC 2300.0 ng/dL fortified with TU, Long-Term at -20°C for 14 days) of the same molecule?
A: -1.8%

Q: And the “% Bias of testosterone concentration” value ([1]; High QC 2300.0 ng/dL fortified with TU, Long-Term at -80°C for 14 days)?
A: -3.1%

Q: And the “% Bias of testosterone concentration” value ([1]; High QC 2300.0 ng/dL fortified with TU, Post-Preparative at RT for 69 hrs)?
A: 10.1%

Q: And the “% Bias of testosterone concentration” value ([1]; High QC 2300.0 ng/dL fortified with TU, Short-Term at 4°C for 21 hrs)?
A: 0.6%

Q: And the “% Bias of testosterone concentration” value ([1]; High QC 2300.0 ng/dL fortified with TU, Short-Term at RmT for 23 hrs)?
A: 0.2%

Q: What about the “% Bias of testosterone concentration” value ([1]; High QC 2300.0 ng/dL fortified with TU, Whole Blood on ice for 110 min) of the same molecule?
A: 8.3%

Q: What about the “% Bias of testosterone concentration” value ([1]; Low QC 40.0 ng/dL fortified with TU, Freeze/Thaw at -20°C (4 Cycles)) of the same molecule?
A: -5.8%

Q: And the “% Bias of testosterone concentration” value ([1]; Low QC 40.0 ng/dL fortified with TU, Freeze/Thaw at -80°C (4 Cycles))?
A: -5.8%

Q: And the “% Bias of testosterone concentration” value ([1]; Low QC 40.0 ng/dL fortified with TU, Long-Term at -20°C for 14 days)?
A: -1.9%

Q: What about the “% Bias of testosterone concentration” value ([1]; Low QC 40.0 ng/dL fortified with TU, Long-Term at -80°C for 14 days) of the same molecule?
A: 2.1%

Q: And the “% Bias of testosterone concentration” value ([1]; Low QC 40.0 ng/dL fortified with TU, Post-Preparative at RT for 69 hrs)?
A: 14.0%

Q: What about the “% Bias of testosterone concentration” value ([1]; Low QC 40.0 ng/dL fortified with TU, Short-Term at 4°C for 21 hrs) of the same molecule?
A: -4.2%

Q: What about the “% Bias of testosterone concentration” value ([1]; Low QC 40.0 ng/dL fortified with TU, Short-Term at RmT for 23 hrs) of the same molecule?
A: -2.5%

Q: And the “% Bias of testosterone concentration” value ([1]; Low QC 40.0 ng/dL fortified with TU, Whole Blood on ice for 110 min)?
A: -11.1%
